In paper PMC3907537, “Evaluation of the Endothelin Receptor Antagonists Ambrisentan, Bosentan, Macitentan, and Sitaxsentan as Hepatobiliary Transporter Inhibitors and Substrates in Sandwich-Cultured Human Hepatocytes” (PLoS ONE, 2014):

Legend:
BCRP = molecular target: T1, BCRP (Homo sapiens, UniProt Q9UNQ0); experiment: BCRP inhibition in MDCKII-ABCG2 cells; format: cell-based; details: mean ± SD of 3 independent studies in duplicate, tested 0.14–100 µM
T1 construct: host or cells: MDCKII
T1 sequence (Q9UNQ0 1-655): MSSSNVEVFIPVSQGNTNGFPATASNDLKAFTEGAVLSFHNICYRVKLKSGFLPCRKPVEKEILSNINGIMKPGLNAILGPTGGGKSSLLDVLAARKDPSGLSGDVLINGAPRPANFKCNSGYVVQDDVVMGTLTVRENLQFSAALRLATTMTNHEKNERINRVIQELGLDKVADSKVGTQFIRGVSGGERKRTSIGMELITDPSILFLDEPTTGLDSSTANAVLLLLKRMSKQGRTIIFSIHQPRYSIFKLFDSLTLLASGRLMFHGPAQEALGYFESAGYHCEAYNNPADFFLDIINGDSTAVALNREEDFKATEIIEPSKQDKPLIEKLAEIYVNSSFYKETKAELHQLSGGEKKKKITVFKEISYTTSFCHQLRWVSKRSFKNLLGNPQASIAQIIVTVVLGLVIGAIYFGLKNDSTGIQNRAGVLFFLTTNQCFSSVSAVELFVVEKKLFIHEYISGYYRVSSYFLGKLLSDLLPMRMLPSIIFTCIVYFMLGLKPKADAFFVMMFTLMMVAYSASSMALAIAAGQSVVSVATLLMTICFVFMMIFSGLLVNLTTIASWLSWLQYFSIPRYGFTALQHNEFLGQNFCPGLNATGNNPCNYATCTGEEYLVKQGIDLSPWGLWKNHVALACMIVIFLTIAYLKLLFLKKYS
Excerpt: Chinese Hamster Ovary (CHO) cells were obtained from Professor B. Stieger’s laboratory at University of Zurich, Zurich, Switzerland. Madin-Darby Canine Kidney strain II (MDCKII) cells were obtained from Nederlands Kanker Instituut (NKI), Amsterdam, Netherlands. NTCP-CHO cells, BSEP and MRP2 membrane vesicles were developed and validated at Solvo Biotechnology, Budaors, Hungary.
MDCKII cells were maintained in DMEM with sodium pyruvate, Glutmax, 1% Penicillin/Streptomycin and 10% FBS in an incubator set at 37°C, 90% humidity and 5% CO2. MDCKII cells were seeded in 96-well black cell culture plates with clear bottoms at a density of 5×10^4 cells/well for Pgp and 2×10^4 cells/well for BCRP and grown to confluence. For the Pgp assay, test compounds were serially diluted in DMSO and then added into in cell culture medium (without FBS) containing 10 µM Calcein AM and incubated for 1 h. Following the removal of media containing Calcein AM and test compound, cells were washed five times with […] phosphate buffered saline containing magnesium and calcium (PBS). Wells were analyzed for Calcein AM fluorescence at an excitation of 494 nm and an emission of 517 nm. For the BCRP assay, test compounds were serially diluted DMSO and then spiked in cell culture medium (without FBS) containing 1 µM pheophorbide a (PhA) and incubated for 18 hours with MDCKII-ABCG2 cells. Following the removal of media containing PhA and test compound, cells were then washed five times with PBS. Wells were analyzed for PhA fluorescence at an excitation of 415 nm and an emission of 675 nm.
All assays were performed in duplicate. IC50 was defined as the test article concentration needed to inhibit the maximal transporter specific accumulation by 50%. IC50 values were calculated using non-linear fitting of % inhibition versus concentration to a sigmoidal curve with a variable Hill Coefficient using GraphPad Prism 5 (GraphPad Software Inc., San Diego, CA).

[1] = system: sandwich-cultured human hepatocytes; experiment: Hepatic disposition (intracellular accumulation) of ERAs in sandwich-cultured human hepatocytes; format: in vitro ADME; details: sandwich-cultured human hepatocytes, 1, 10 and 100 µM, 10 min, n = 3 donors
Description: Sandwich-cultured human hepatocytes were obtained from Celsis/IVT (Baltimore, MD) or Life Technologies (Durham, NC). Donors were male (n = 3) and female (n = 1) between the ages of 31 and 62 years old. Hepatic uptake, biliary excretion and in vitro biliary clearance (Clb) were determined using the B-CLEAR® hepatocyte sandwich culture model as described by Liu et al., 1999 [34]. In this system, hepatocytes form functional bile canalicular networks while maintaining the expression and function of key uptake and efflux transporters. The canalicular system of bile pockets remains separate from the cellular culture media due to tight junctions between cells. The integrity of these tight junctions is maintained in the presence of calcium (Plus (+) buffer) while in the absence of calcium (Minus (−) buffer), these tight junctions open and release the contents of the canalicular network into the media.
Incubation solutions containing ERA (1, 10 and 100 µM) were prepared in Plus (+) buffer. Cell culture medium was removed from the wells and the cells were washed twice with Plus (+) or Minus (−) buffer. The wash solutions were then removed and replaced with fresh Plus (+) or Minus (−) buffer. The cells were conditioned for 10 min at 37°C. After the 10 min exposure, the buffer solutions were removed and replaced with the incubation solutions and incubated for 10 min at 37°C. Following 10 min incubation, the incubation solutions were removed and the cells were then washed three times with ice-cold Plus (+) Buffer. The plates were frozen at −80°C until processed for bioanalysis.
Study samples were stored in their original 24-well plates at −80°C until prepared for analysis. A volume of 500 µL of cell lysis solution (70∶30 methanol:water) containing 25 nM internal standard was added to each well and mixed for 20 min of mixing. […] Prepared samples were filtered and analyzed by LC-MS/MS using a Shimadzu binary HPLC system (Columbia, MD) and tandem mass spectrometry using Thermo Electron TSQ® Quantum Discovery MAX™ (Waltham, MA) with an Ion Max ESI source operating in negative ion electrospray ionization mode. Results for unknowns and QCs were calculated using a standard curve based on an internal standard processing method.
Data calculations were performed using Microsoft Excel, 2010 with all values reported as mean ± standard deviation (SD). […] All mass values were normalized to mg protein by taking the average protein mass in the taurocholate plate determined using a BCA protein assay (Pierce Biotechnology, Rockford, IL). Cellular accumulation determined in Minus (−) buffer (Accumulation Minus (−) Buffer) represents the total mass of analyte inside the hepatocyte at the end of the incubation time period. […]

Row | IC50 (BCRP) [µM] | hepatocyte accumulation relative to the extracellular test concentration [1] [x] | hepatocyte accumulation relative to the extracellular test concentration ([1]; listed as Macitentan) [x] | SMILES
1 | > 100 |  |  | COC(c1ccccc1)(c1ccccc1)[C@H](Oc1nc(C)cc(C)n1)C(=O)O [ambrisentan]
2 | > 100 | ~20 |  | COc1ccccc1Oc1c(NS(=O)(=O)c2ccc(C(C)(C)C)cc2)nc(-c2ncccn2)nc1OCCO [bosentan]
3 | 75 ± 37 | > 100 | ~100 | CCCNS(=O)(=O)Nc1ncnc(OCCOc2ncc(Br)cn2)c1-c1ccc(Br)cc1 [macitentan]
4 |  | ~40 |  | Cc1cc2c(cc1CC(=O)c1sccc1S(=O)(=O)Nc1onc(C)c1Cl)OCO2 [sitaxsentan]
